Reference: patent US20130237487A1, “CRYSTALLINE AND NON-CRYSTALLINE FORMS OF SGLT2 INHIBITORS” (SCINOPHARM TAIWAN, LTD., priority 2011, published 2013)
“Also recorded” adds a separate entry of the source.

Tests used:
[1] = Dynamic vapor sorption (DVS) analysis; conditions: for sorption/desorption behavior between cycles: DVS isotherm plots, two sorption/desorption cycles; for hygroscopicity (moisture sorption) / physical stability of the solid form as humidity is changed: DVS; for hygroscopicity (moisture sorption): relative humidity increased from 0% to 90%; for physical stability of the solid form as humidity is changed: up to 90% RH
[2] = Hydration-state stability of Form CS3 under different humidity (DSC/TGA, Karl Fischer titration); assay type: physicochemical
Excerpt: Form CS3 has been further characterized using DSC/TGA and Karl Fischer titration. […] Dehydration, which is reversible, only occurs when the sample is exposed to a low humidity environment (e.g., less than about 10% RH). […] The DSC/TGA traces of crystalline complex Form CS3 of canagliflozin are in accordance with FIG. 17. The aforementioned physical stability characteristic of this embodiment makes the crystalline complex Form CS3 of canagliflozin a preferred solid form of canagliflozin of this invention.
(FIG. 20) is essentially the same as the XRPD pattern acquired at 25° C. (FIG. 15). Thus, from the XRPD patterns acquired at 25° C. and 100° C., it can be reasonably concluded that although Form CS3 is a monohydrate under ambient conditions (such as in an analytical chemistry laboratory), it can also exist as an anhydrate at low humidity, such as less than about 10% RH, and at temperatures higher than ambient temperature.

[3] = laboratory environmental conditions

| SMILES | sorption/desorption behavior between cycles [1] | hygroscopicity (moisture sorption) [1] | physical stability of the solid form as humidity is changed [1] | physical stability (hydration state) ([2]; highly humid conditions) | hygroscopicity [2, 3] | physical stability (hydration state) [2, 3] | relative humidity at which (reversible) dehydration occurs ([2]; low humidity environment) |
| --- | --- | --- | --- | --- | --- | --- | --- |
| Cc1ccc([C@@H]2O[C@H](CO)[C@@H](O)[C@H](O)[C@H]2O)cc1Cc1ccc(-c2ccc(F)cc2)s1 [amorphous form of canagliflozin, (2S,3R,4R,5S,6R)-2-{3-[5-[4-fluoro-phenyl)-thiophen-2-ylmethyl]-4-methyl-phenyl}-6-hydroxymethyl-tetrahydro-pyran-3,4,5-triol] | second sorption/desorption cycle was different from the first cycle; also recorded: inconsistent between the two cycles | significantly hygroscopic | conversion or partial conversion from the amorphous state to a crystalline state; also recorded: undergoes physical change (from amorphous to crystalline) | – | – | – | – |
| Cc1ccc([C@@H]2O[C@H](CO)[C@@H](O)[C@H](O)[C@H]2O)cc1Cc1ccc(-c2ccc(F)cc2)s1 [Form CS3] | – | – | – | remains as a monohydrate | non-hygroscopic | stable as a monohydrate | less than 10 % RH |
| Cc1ccc([C@@H]2O[C@H](CO)[C@@H](O)[C@H](O)[C@H]2O)cc1Cc1ccc(-c2ccc(F)cc2)s1.O=C(O)[C@@H]1CCCN1 [Form CS1] | completely consistent between cycles | not hygroscopic | stable in the presence or absence of moisture | – | – | – | – |
